Assay: Solubility of mometasone furoate in foam composition, visual inspection
Format: physicochemical
Details: in the hydro-alcoholic foam formulation

Solubility of Mometasone Furoate: soluble
Structure (SMILES): C[C@@H]1C[C@H]2[C@@H]3CCC4=CC(=O)C=C[C@]4(C)[C@@]3(Cl)[C@@H](O)C[C@]2(C)[C@@]1(OC(=O)c1ccco1)C(=O)CCl [Mometasone furoate]

— US10092588B2, “Foamable compositions, breakable foams and their uses” (Foamix Pharmaceuticals Ltd., priority 2009, dated 2018)
